Patent US20250304542A1, “Fused Heterobicyclic Antiviral Agents” (Enanta Pharmaceuticals, Inc., priority 2024, published 2025)

What follows are compounds tested against T1, NTCP (Homo sapiens, UniProt Q14973) (assay: HepG2-NTCP preS1 Binding Competition Assay). Settings: HepG2-NTCP cells pre-treated 2 hours, FITC-labeled myristoylated preS1 peptide co-incubated 30 minutes, cell-surface fluorescence; read-out: Cellular EC50.
T1 construct: expressed in transfected cells; host or cells: HepG2-NTCP (A3 clone, kept under puromycin)
T1 sequence (Q14973 1-349): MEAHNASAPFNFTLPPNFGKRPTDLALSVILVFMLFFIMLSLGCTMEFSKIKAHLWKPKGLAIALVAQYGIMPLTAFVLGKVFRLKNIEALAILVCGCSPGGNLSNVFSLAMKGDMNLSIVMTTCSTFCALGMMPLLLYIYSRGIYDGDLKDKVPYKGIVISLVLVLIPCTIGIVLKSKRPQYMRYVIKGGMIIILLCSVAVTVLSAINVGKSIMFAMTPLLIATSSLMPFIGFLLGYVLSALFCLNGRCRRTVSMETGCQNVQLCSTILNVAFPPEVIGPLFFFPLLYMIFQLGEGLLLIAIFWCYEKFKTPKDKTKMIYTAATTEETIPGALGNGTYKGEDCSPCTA
Procedure: Myristoylated preS1 peptide (2-48 aa) conjugated to a C-terminal FITC tag was synthesized to evaluate preS1 binding to NTCP-expressing cells. HepG2-NTCP cells seeded in 384-wells were pre-treated with compounds for 2 hours prior to the addition of FITC-labeled preS1 peptide. After co-incubation for 30 minutes, unbound FITC-preS1 peptide was washed twice with PBS, and the fluorescence of preS1-FITC bound to cell surface was detected by Envision plate reader. EC50 ranges are as follows: A<0.1 μM; B 0.1-1 μM; C>1 μM. A dash (-) indicates the compound was not tested.

CN1[C@H](C2CCCCC2)CN(c2ccccc2)c2cc(Cl)c(CC[C@@H](NC(=O)OCc3ccccc3)C(=O)O)cc2S1(=O)=O [Example 23] and CCOC(=O)N[C@H](CCc1cc2c(cc1Cl)N(c1ccccc1)C[C@@H](C1CCCCC1)N(C)S2(=O)=O)C(=O)O [Example 19] fall in the same range of EC50: 100 to 1000 nM for the first, 100 to 1000 nM for the second.

CN1[C@H](C2CCCCC2)CN(c2ccccc2)c2cc(Cl)c(CC[C@H](NC(=O)C(=O)N3CCCC3)C(=O)O)cc2S1(=O)=O [Example 35] and CN1[C@H](C2CCCCC2)CN(c2ccccc2)c2cc(Cl)c(CC[C@@H](NC(=O)N3CCCCC3)C(=O)O)cc2S1(=O)=O [Example 24, (R)-4-((R)-7-chloro-3-cyclohexyl-2-methyl-1,1-dioxido-5-phenyl-2,3,4,5-tetrahydrobenzo[f][1,2,5]thiadiazepin-8-yl)-2-(piperidine-1-carboxamido)butanoic acid] fall in the same range of EC50: 100 to 1000 nM for the first, 100 to 1000 nM for the second.

First: CNc1cc2c(cc1C(=O)NC(C)(C)C(=O)O)S(=O)(=O)N(C)[C@H](C1CCCCC1)CN2c1ccccc1 [Example 43]
Second: CNc1cc2c(cc1C(=O)NC1(C(=O)O)CC1)S(=O)(=O)N(C)[C@H](C1CCCCC1)CN2c1ccccc1 [Example 42]
The EC50 of the first is lower: 100 to 1000 nM for the first, greater than 1000 nM for the second.

First: CNc1cc2c(cc1C(=O)N[C@H](C(=O)O)C1CCOCC1)S(=O)(=O)N(C)[C@H](C1CCCCC1)CN2c1ccccc1 [Example 44]
Second: CNc1cc2c(cc1C(=O)N[C@@H](C(=O)O)c1cccc(Cl)c1)S(=O)(=O)N(C)[C@H](C1CCCCC1)CN2c1ccccc1 [Example 46]
The EC50 of the first is higher: greater than 1000 nM for the first, 100 to 1000 nM for the second.

CCN(C)C(=O)N[C@H](CCc1cc2c(cc1Cl)N(c1ccccc1)C[C@@H](C1CCCCC1)N(C)S2(=O)=O)C(=O)O [Example 25, (R)-4-((R)-7-chloro-3-cyclohexyl-2-methyl-1,1-dioxido-5-phenyl-2,3,4,5-tetrahydrobenzo[f][1,2,5]thiadiazepin-8-yl)-2-(3-ethyl-3-methylureido)butanoic acid] and CCN(C)C(=O)N[C@@H](CCc1cc2c(cc1Cl)N(c1ccccc1)C[C@@H](C1CCCCC1)N(C)S2(=O)=O)C(=O)O [Example 26] fall in the same range of EC50: 100 to 1000 nM for the first, 100 to 1000 nM for the second.

CCCCCCCCCOC(=O)N[C@H](CCc1cc2c(cc1Cl)N(c1ccccc1)C[C@@H](C1CCCCC1)N(C)S2(=O)=O)C(=O)O [Example 21] and CCCCCCCCCOC(=O)N[C@@H](CCc1cc2c(cc1Cl)N(c1ccccc1)C[C@@H](C1CCCCC1)N(C)S2(=O)=O)C(=O)O [Example 20] fall in the same range of EC50: 100 to 1000 nM for the first, 100 to 1000 nM for the second.

CCCCCC(=O)N[C@@H](CCc1cc2c(cc1Cl)N(c1ccccc1)C[C@@H](C1CCCCC1)N(C)S2(=O)=O)C(=O)O [Example 36, (S)-4-((R)-7-chloro-3-cyclohexyl-2-methyl-1,1-dioxido-5-phenyl-2,3,4,5-tetrahydrobenzo[f][1,2,5]thiadiazepin-8-yl)-2-hexanamidobutanoic acid] and CCCCCOC(=O)N[C@H](CCc1cc2c(cc1Cl)N(c1ccccc1)C[C@@H](C1CCCCC1)N(C)S2(=O)=O)C(=O)O [Example 17] fall in the same range of EC50: 100 to 1000 nM for the first, 100 to 1000 nM for the second.

CN1[C@H](C2CCCCC2)CN(c2ccccc2)c2cc(Cl)c(CC[C@H](NC(=O)N3CCCCC3)C(=O)O)cc2S1(=O)=O [Example 27] and CC(C)CS(=O)(=O)N[C@@H](CCc1cc2c(cc1Cl)N(c1ccccc1)C[C@@H](C1CCCCC1)N(C)S2(=O)=O)C(=O)O [Example 28, (S)-4-((R)-7-chloro-3-cyclohexyl-2-methyl-1,1-dioxido-5-phenyl-2,3,4,5-tetrahydrobenzo[f][1,2,5]thiadiazepin-8-yl)-2-((2-methylpropyl)sulfonamido)butanoic acid] fall in the same range of EC50: 100 to 1000 nM for the first, 100 to 1000 nM for the second.

For CN1[C@H](C2CCCCC2)CN(C2CCCCC2)c2cc(Cl)c(/C=C/C(C)(C)C(=O)O)cc2S1(=O)=O [Example 10, (R,E)-4-(7-chloro-3,5-dicyclohexyl-2-methyl-1,1-dioxido-2,3,4,5-tetrahydrobenzo[f][1,2,5]thiadiazepin-8-yl)-2,2-dimethylbut-3-enoic acid], the EC50 was 100 to 1000 nM.
